These results are taken from patent US20090012103A1, “SUBSTITUTED HETEROCYCLIC COMPOUNDS” (priority 2007, published 2009).

Data set [1] deals with T1, wild-type human cardiac sodium channel, hNav1.5 (Homo sapiens, UniProt Q14524). The data set is described as follows: Peak INa screening assay (tonic block TB and use-dependent block UDB of peak sodium current). The format is cell-based. As to conditions: compound at 10 μM. As for the experimental part:
The late sodium current (Late INa) and peak sodium current (Peak INa) assays are performed on an automated electrophysiology platform, PatchXpress 7000A (MDS Analytical Technologies, Sunnyvale, Calif.), which uses the whole cell patch clamp technique to measure currents through the cell membrane of up to 16 cells at a time. The assay uses an HEK293 (human embryonic kidney) cell line heterologously expressing the wild-type human cardiac sodium channel, hNav1.5, purchased from Millipore (Billerica, Mass.). No beta subunits were coexpressed with the Na channel alpha subunit. […] Experiments are carried out at 24-27° C.
For both the Late INa and Peak INa assays, series resistance compensation is set to 50% and whole-cell compensation is performed automatically. […] Currents through open sodium channels are automatically recorded and stored in the DataXpress2 database (MDS Analytical Technologies, Sunnyvale, Calif.). Analysis is performed using DataXpress2 analysis software and data are compiled in Excel.
Compound stocks are routinely made in glass vials to 10 mM in dimethyl sulfoxide (DMSO). In some cases, when compounds are not soluble in DMSO, they are made in 100% ethanol. Stocks are sonicated as necessary. The extracellular solution for screening Late INa is composed of: 140 mM NaCl, 4 mM KCl, 1.8 mM CaCl2, 0.75 mM MgCl2, and 5 mM HEPES with pH adjusted to 7.4 using NaOH. The extracellular solution for screening Peak INa is composed of: 20 mM NaCl, 120 mM N-methyl-D glucamine, 4 mM KCl, 1.8 mM CaCl2, 0.75 mM MgCl2, and 5 mM HEPES with pH adjusted to 7.4 using HCl. The intracellular solution used to perfuse the inside of the cells for both the Late INa and Peak INa assays contains: 120 mM CsF, 20 mM CsCl, 5 mM EGTA, 5 mM HEPES and pH adjusted to 7.4 with CsOH. Compounds are diluted in extracellular solution to 10 μM in glass vials and then transferred to glass well plates before robotic addition to the cells. The 0 Na extracellular solution used at the end of each experiment for the Late INa and Peak INa assays to measure baseline current contains: 140 mM N-methyl-D-glucamine; 4 mM KCl; 1.8 mM CaCl2; 0.75 mM MgCl2; 5 mM HEPES and pH was adjusted to 7.4 with HCl.
Compounds were also evaluated for their effect in several other assays, including their effect on Peak INa. In some cases, the effect on Peak INa was measured using data from the Late INa assay. […] Since the peak INa can be very large, introducing artifacts in the recording, the concentration of Na^+ in the bath is reduced to 20 mM and a nonpermeant cation is added to compensate for the Na^+ that was omitted from the standard extracellular solution (see above). The peak INa assay uses a holding potential of −100 mV and a 20 ms test pulse to 0 mV to activate the channel. As in the Late INa assay, stepping the voltage to 0 mV causes a rapid increase in negative Na current through hNav1.5 that inactivates within a few ms. No late INa activator is added for the peak assay.
For the separate peak INa assay, both tonic (TB) block and use-dependent (UDB) block of peak inward sodium current by 10 μM compound are determined. TB is block of the channel in the resting state, before the channel opens. TB is simulated in this assay by stimulating the channel to open at a low frequency (0.1 Hz). This is done in order to measure the control current amplitude and monitor current rundown, enabling correction for rundown in the calculation of percent block for TB.

The target of data set [2] is hERG potassium channel (Homo sapiens, UniProt Q12809). The data set is described as follows: hERG screening assay (PatchXpress patch clamp, CHO cell line). (Block of hERG is tested as a sign of cardiac risk.)
hERG potassium channel, sequence (Q12809 whole entry): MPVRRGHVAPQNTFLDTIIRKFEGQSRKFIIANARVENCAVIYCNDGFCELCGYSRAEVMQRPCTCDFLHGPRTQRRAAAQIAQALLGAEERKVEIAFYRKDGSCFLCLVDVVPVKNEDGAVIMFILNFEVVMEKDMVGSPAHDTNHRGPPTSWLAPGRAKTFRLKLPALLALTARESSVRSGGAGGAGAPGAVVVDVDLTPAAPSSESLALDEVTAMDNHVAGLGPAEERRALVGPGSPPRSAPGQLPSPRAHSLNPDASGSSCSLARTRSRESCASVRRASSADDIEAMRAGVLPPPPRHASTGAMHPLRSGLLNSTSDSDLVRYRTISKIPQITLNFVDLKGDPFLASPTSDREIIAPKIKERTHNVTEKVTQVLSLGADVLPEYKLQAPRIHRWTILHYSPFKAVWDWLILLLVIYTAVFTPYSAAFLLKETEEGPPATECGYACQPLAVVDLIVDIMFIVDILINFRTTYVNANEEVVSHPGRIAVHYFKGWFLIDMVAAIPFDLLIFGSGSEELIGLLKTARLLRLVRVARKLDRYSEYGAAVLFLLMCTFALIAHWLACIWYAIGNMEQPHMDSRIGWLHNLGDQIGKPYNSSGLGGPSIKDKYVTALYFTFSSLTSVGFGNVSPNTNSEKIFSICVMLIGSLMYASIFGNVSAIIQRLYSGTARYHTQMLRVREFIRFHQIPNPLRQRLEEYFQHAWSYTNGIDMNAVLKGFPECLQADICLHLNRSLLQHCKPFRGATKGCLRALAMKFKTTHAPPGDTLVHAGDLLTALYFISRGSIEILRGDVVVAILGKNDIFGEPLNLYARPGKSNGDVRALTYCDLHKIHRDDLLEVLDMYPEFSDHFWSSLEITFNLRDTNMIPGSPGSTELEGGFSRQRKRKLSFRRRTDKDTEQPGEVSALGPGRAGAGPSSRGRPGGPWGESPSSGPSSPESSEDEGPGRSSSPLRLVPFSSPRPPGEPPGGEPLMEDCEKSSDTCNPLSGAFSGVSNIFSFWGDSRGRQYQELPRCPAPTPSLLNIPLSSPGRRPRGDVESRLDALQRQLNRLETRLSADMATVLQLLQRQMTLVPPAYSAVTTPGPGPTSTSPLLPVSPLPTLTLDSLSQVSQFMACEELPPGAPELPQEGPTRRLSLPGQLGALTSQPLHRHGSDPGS
Procedure: Compounds were screened to test their activity in blocking the hERG potassium channel. The hERG channel is heterologously expressed in a CHO (Chinese Hamster Ovary) cell line. Cells are maintained with standard tissue culture procedures and stable channel expression is maintained with 500 μg/ml G418 in the culture medium. Cells are harvested for testing on the PatchXpress automated patch clamp with Accumax (Innovative Cell Technologies, San Diego, Calif.) to isolate single cells.
The following solutions are used for electrophysiological recordings. The external solution contains: 2 mM CaCl2; 2 mM MgCl2; 4 mM KCl; 150 mM NaCl; 10 mM Glucose; 10 mM HEPES (pH 7.4 with 1M NaOH, osmolarity).
hERG channels are activated when the voltage is stepped to +20 mV from the −80 mV holding potential (see FIG. 3). During a 5 second step at +20 mV, the channels activate and then largely inactivate, so the currents are relatively small. Upon returning to −50 mV from +20 mV, hERG currents transiently become much larger as inactivation is rapidly removed and then the channel closes. The first step to −50 mV for 300 ms is used as a baseline for measuring the peak amplitude during the step to −50 mV after channel activation. The peak current at −50 mV is measured both under control conditions and after addition of compound.
All compounds are prepared as 10 mM DMSO stocks in glass vials. Stock solutions are mixed by vigorous vortexing and sonication for about 2 minutes at room temperature. For testing, compounds are diluted in glass vials using an intermediate dilution step in pure DMSO and then further diluted to working concentrations in external solution. Dilutions are prepared no longer than 20 minutes before use.
After achieving the whole-cell configuration, cells are monitored for 90 seconds to assess stability and washed with external solution for 66 seconds. The voltage protocol described above is then applied to the cells every 12 seconds and throughout the whole procedure. Only cells with stable recording parameters and meeting specified health criteria are allowed to enter the compound addition procedure.
External solution containing 0.1% DMSO (vehicle) is applied to the cells first to establish the control peak current amplitude. After allowing the current to stabilize for 3 to 5 minutes, 1 μM and then 10 μM test compounds are applied. Each compound concentration is added 4 times and cells are kept in test solution until the effect of the compound reaches steady state or for a maximum of 12 minutes. […] Washout in the external solution compartment is performed until the recovery of the current reaches steady state. Data are analyzed using DataXpress, Clampfit (Molecular Devices, Inc., Sunnyvale) and Origin 7 (Originlab Corp.)
Data set [3] deals with T1, wild-type human cardiac sodium channel, hNav1.5. The data set is described as follows: Late INa screening assay (late sodium current, PatchXpress whole cell patch clamp). The format is cell-based. The note with it: compound at 10 μM; read-out: Late INa % blk. (In general: In patch-clamp work, channel activity is measured electrically.)
The mark [4] stands for this setting: tonic block, read-out: Tonic Peak INa % blk.
Setting [5] is: use-dependent block, read-out: UDB Peak INa % blk.

T1 sequence (Q14524 whole entry): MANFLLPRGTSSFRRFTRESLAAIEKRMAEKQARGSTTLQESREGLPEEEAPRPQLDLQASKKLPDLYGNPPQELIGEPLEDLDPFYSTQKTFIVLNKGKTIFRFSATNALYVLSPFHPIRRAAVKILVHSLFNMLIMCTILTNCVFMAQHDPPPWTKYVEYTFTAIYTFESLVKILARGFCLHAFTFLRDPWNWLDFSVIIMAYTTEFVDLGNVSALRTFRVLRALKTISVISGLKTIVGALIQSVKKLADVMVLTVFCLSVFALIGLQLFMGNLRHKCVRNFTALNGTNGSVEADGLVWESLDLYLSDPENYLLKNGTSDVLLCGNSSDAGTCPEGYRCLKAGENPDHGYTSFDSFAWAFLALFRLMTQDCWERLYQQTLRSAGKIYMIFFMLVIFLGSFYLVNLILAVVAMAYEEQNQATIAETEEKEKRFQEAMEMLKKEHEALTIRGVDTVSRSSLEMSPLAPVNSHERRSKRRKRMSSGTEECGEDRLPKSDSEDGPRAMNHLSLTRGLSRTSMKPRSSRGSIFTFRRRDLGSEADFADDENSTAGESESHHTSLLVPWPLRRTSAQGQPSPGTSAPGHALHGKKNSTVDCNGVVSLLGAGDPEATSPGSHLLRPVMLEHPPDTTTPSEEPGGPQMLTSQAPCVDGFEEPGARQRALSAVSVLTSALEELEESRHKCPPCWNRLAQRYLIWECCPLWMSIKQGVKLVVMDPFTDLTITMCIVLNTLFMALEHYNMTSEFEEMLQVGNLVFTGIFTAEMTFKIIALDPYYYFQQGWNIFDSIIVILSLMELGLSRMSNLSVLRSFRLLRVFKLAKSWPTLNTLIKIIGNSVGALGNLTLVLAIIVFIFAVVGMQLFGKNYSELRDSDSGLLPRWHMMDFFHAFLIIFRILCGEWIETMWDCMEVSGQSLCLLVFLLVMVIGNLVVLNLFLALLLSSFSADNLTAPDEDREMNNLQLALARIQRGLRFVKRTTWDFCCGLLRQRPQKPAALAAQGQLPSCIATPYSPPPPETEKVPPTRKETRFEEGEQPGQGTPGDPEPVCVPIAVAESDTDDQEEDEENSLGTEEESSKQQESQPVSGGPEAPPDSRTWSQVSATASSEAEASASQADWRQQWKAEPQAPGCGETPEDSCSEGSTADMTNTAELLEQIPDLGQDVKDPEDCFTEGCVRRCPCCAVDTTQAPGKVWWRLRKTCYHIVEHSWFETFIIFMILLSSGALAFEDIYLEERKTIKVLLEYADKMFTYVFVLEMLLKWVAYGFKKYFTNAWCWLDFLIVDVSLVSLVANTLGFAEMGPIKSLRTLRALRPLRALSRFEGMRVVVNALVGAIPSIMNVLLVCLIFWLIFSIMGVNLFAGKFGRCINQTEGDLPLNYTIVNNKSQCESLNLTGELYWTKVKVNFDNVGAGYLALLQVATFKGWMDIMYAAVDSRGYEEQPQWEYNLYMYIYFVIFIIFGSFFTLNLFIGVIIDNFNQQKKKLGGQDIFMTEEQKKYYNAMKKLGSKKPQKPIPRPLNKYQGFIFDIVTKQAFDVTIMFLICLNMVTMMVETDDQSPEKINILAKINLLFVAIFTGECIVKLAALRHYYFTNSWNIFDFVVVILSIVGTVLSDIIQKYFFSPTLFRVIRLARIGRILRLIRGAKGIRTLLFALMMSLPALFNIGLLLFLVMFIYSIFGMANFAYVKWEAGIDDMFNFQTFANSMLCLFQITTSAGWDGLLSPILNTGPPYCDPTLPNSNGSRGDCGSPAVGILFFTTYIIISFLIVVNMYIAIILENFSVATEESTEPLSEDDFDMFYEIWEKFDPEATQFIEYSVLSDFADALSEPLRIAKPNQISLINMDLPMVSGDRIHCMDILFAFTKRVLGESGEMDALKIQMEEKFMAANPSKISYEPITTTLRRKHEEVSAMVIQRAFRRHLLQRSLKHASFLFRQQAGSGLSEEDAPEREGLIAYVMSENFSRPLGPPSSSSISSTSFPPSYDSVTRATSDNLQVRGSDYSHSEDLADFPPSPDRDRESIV

With `CC1=C(C(=O)OC(c2ccccc2)C2CC2)C(c2cccc3ccccc23)n2nnnc2N1` (stereo not shown) [PT-002, cyclopropyl(phenyl)methyl 5-methyl-7-(naphthalen-1-yl)-4,7-dihydrotetrazolo[1,5-a]pyrimidine-6-carboxylate], the inhibition at 10 µM in data set [1] (setting [4]) turned out to be 2.4%; in data set [3] it was 53.1%. For the same molecule, the results for the “hERG Patch Clamp hERG % blk” value in data set [2] (1 μM) and in data set [2] (10 μM) were 11.5% and 28.0%, respectively.

Consider `CCOC(=O)C1=C(C)Nc2nnnn2C1c1ccc2ccccc2c1` (stereo not shown) [PT-008, ethyl 5-methyl-7-(naphthalen-2-yl)-4,7-dihydrotetrazolo[1,5-a]pyrimidine-6-carboxylate], for which the inhibition at 10 µM was 2.1% in data set [1] (setting [4]) and 57.2% in data set [3]. Moreover, the figures for the “hERG Patch Clamp hERG % blk” value in data set [2] (1 μM) and in data set [2] (10 μM) were 10.0% and 33.5%, respectively.

With `CC1=C(C(=O)OCc2ccccc2)C(c2cccc3ccccc23)n2nnnc2N1` (stereo not shown) [PT-027, benzyl 5-methyl-7-(naphthalen-1-yl)-4,7-dihydrotetrazolo[1,5-a]pyrimidine-6-carboxylate], the inhibition at 10 µM in data set [1] (setting [4]) was 29.7%; in data set [1] (setting [5]), 6.8%; in data set [3] it was 74.9%. The “hERG Patch Clamp hERG % blk” value is given as 14.0% in data set [2] (1 μM) and 64.5% in data set [2] (10 μM).

For `CC1=C(C(=O)OCc2ccccc2)C(c2ccc(N(C)C)c3ccccc23)n2nnnc2N1` (stereo not shown) [PT-032, benzyl 7-(4-(dimethylamino)naphthalen-1-yl)-5-methyl-4,7-dihydrotetrazolo[1,5-a]pyrimidine-6-carboxylate], the inhibition at 10 µM in data set [1] (setting [4]) was determined as 11.5%; in data set [3], 63.6%. The “hERG Patch Clamp hERG % blk” value in data set [2] (1 μM) is recorded as 19.0%; in data set [2] (10 μM), 50.5%.

As for `CC1=C(C(=O)OCc2ccccc2)C(c2cccs2)n2nnnc2N1` (stereo not shown) [PT-040, benzyl 5-methyl-7-(thiophen-2-yl)-4,7-dihydrotetrazolo[1,5-a]pyrimidine-6-carboxylate], the inhibition at 10 µM in data set [1] (setting [4]) was found to be 9.9%; in data set [3] it was 70.8%. The “hERG Patch Clamp hERG % blk” value is on record as 14.5% in data set [2] (1 μM) and 24.5% in data set [2] (10 μM).

Turning to `CC1=C(C(=O)OCc2ccccc2)C(c2cc3ccccc3o2)n2nnnc2N1` (stereo not shown) [PT-045, benzyl 7-(benzofuran-2-yl)-5-methyl-4,7-dihydrotetrazolo[1,5-a]pyrimidine-6-carboxylate], the inhibition at 10 µM in data set [1] (setting [4]) is 23.8%; in data set [3] it was 92%. In addition, the “hERG Patch Clamp hERG % blk” value was found to be 10.0% in data set [2] (1 μM) and 70.0% in data set [2] (10 μM).

Take `CC1=C(C(=O)OC2CCc3ccccc32)C(c2cccc3ccccc23)n2nnnc2N1` (stereo not shown) [PT-062, 2,3-dihydro-1H-inden-1-yl 5-methyl-7-(naphthalen-1-yl)-4,7-dihydrotetrazolo[1,5-a]pyrimidine-6-carboxylate]: the inhibition at 10 µM was found to be 7.9% in data set [1] (setting [4]) and 60.2% in data set [3]. The “hERG Patch Clamp hERG % blk” value in data set [2] (1 μM) turned out to be 14.0%; in data set [2] (10 μM) it was 51.0%.

On to `CC1=C(C(=O)OC(C)Cc2ccccc2)C(c2cccc3ccccc23)n2nnnc2N1` (stereo not shown) [PT-064, 1-phenylpropan-2-yl 5-methyl-7-(naphthalen-1-yl)-4,7-dihydrotetrazolo[1,5-a]pyrimidine-6-carboxylate], for which the inhibition at 10 µM in data set [1] (setting [4]) was 7.2%; in data set [3] it was 79.5%. In addition, the results for the “hERG Patch Clamp hERG % blk” value in data set [2] (1 μM) and in data set [2] (10 μM) were 20.5% and 37.5%, respectively.

Take `CCOC(=O)C1=C(C)NC(C)=C(C(=O)OCC)C1c1ccc2c(c1)OCCO2` [PT-109, diethyl 4-(2,3-dihydrobenzo[b][1,4]dioxin-6-yl)-2,6-dimethyl-1,4-dihydropyridine-3,5-dicarboxylate]: the inhibition at 10 µM in data set [1] (setting [4]) was 18.1%. In addition, the “hERG Patch Clamp hERG % blk” value amounted to 16.0% in data set [2] (1 μM) and 34.2% in data set [2] (10 μM).

For `CC1=C(C(=O)OCC2CC2)C(c2c(Br)sc3ccccc23)n2nnnc2N1` (stereo not shown) [PT-426, cyclopropylmethyl 7-(2-bromobenzo[b]thiophen-3-yl)-5-methyl-4,7-dihydrotetrazolo[1,5-a]pyrimidine-6-carboxylate], the results for the inhibition at 10 µM in data set [1] (setting [4]), in data set [1] (setting [5]) and in data set [3] were 60.1%, 50.7% and 81%, respectively.

As for `CCOC(=O)C1=C(C)NC(C)=C(C(=O)OCC)C1c1ccccc1-c1ccc(NS(C)(=O)=O)cc1` [PT-428, diethyl 2,6-dimethyl-4-(4′-(methylsulfonamido)biphenyl-2-yl)-1,4-dihydropyridine-3,5-dicarboxylate], the inhibition at 10 µM was found to be 5.3% in data set [1] (setting [4]), 1% in data set [1] (setting [5]) and 45.1% in data set [3].

In the case of `CCOC(=O)C1=C(C)Nc2nnnn2C1c1c(Br)sc2ccccc12` (stereo not shown) [PT-489, ethyl 7-(2-bromobenzo[b]thiophen-3-yl)-5-methyl-4,7-dihydrotetrazolo[1,5-a]pyrimidine-6-carboxylate], the inhibition at 10 µM stood at 46.2% in data set [1] (setting [4]), 29.2% in data set [1] (setting [5]) and 80.7% in data set [3].

With `CCOC(=O)C1=C(C)Nc2nnnn2C1c1ccccc1I` (stereo not shown) [PT-492, ethyl 7-(2-iodophenyl)-5-methyl-4,7-dihydrotetrazolo[1,5-a]pyrimidine-6-carboxylate], the inhibition at 10 µM is 0.3% in data set [1] (setting [4]) and 39.3% in data set [3].

Consider `CCOC(=O)C1=C(C)Nc2nnnn2C1c1cccc(Oc2cccc(C(=O)OCC)c2)c1` (stereo not shown) [PT-494, ethyl 7-(3-(3-(ethoxycarbonyl)phenoxy)phenyl)-5-methyl-4,7-dihydrotetrazolo[1,5-a]pyrimidine-6-carboxylate], for which the inhibition at 10 µM in data set [1] (setting [4]) amounted to 6.7%; in data set [1] (setting [5]), 2%; in data set [3], 71.8%.

As for `CCOC(=O)C1=C(C)Nc2nnnn2C1c1cccc(OCc2cccc(C(=O)OC)c2)c1` (stereo not shown) [PT-495, ethyl 7-(3-(3-(methoxycarbonyl)benzyloxy)phenyl)-5-methyl-4,7-dihydrotetrazolo[1,5-a]pyrimidine-6-carboxylate], the inhibition at 10 µM in data set [1] (setting [4]) is 20.7%; in data set [1] (setting [5]), 11.6%; in data set [3] it was 54.2%.

`CCOC(=O)C1=C(C)Nc2nnnn2C1c1sccc1-c1cccc(F)c1` (stereo not shown) [PT-496, ethyl 7-(3-(3-fluorophenyl)thiophen-2-yl)-5-methyl-4,7-dihydrotetrazolo[1,5-a]pyrimidine-6-carboxylate]: the inhibition at 10 µM in data set [1] (setting [4]) stood at 36.8%; in data set [1] (setting [5]), 9.1%; in data set [3] it was 84.2%.

`CCOC(=O)C1=C(C)Nc2nnnn2C1c1cccc(OCc2ccc(C(=O)OCC)cc2)c1` (stereo not shown) [PT-497, ethyl 7-(3-(4-(ethoxycarbonyl)benzyloxy)phenyl)-5-methyl-4,7-dihydrotetrazolo[1,5-a]pyrimidine-6-carboxylate]: the inhibition at 10 µM stood at 22.2% in data set [1] (setting [4]), 15.4% in data set [1] (setting [5]) and 59% in data set [3].

In the case of `CC1=C(C(=O)OC(C)C)C(c2c(Br)sc3ccccc23)n2nnnc2N1` (stereo not shown) [PT-506, isopropyl 7-(2-bromobenzo[b]thiophen-3-yl)-5-methyl-4,7-dihydrotetrazolo[1,5-a]pyrimidine-6-carboxylate], the inhibition at 10 µM in data set [1] (setting [4]) is 48.8%; in data set [1] (setting [5]), 23%; in data set [3] it was 81.4%.

With `COC(=O)C1=C(C)Nc2nnnn2C1c1c(Br)sc2ccccc12` (stereo not shown) [PT-518, methyl 7-(2-bromobenzo[b]thiophen-3-yl)-5-methyl-4,7-dihydrotetrazolo[1,5-a]pyrimidine-6-carboxylate], the inhibition at 10 µM was found to be 24% in data set [1] (setting [4]) and 71.2% in data set [3].
